In patent publication US20250326793A1, “Novel Peptide and Use Thereof” (Zincure Corp., priority 2022, published 2025):
Non-standard residues stand in square brackets, D forms with d. No end group written: not given here.

Assays:
[1] = tested on: H4 cell lines expressing GFP-tagged LC3 (GL-H4); assay: Autophagic flow blocked by Bafilomycin A-1: LC3-GFP puncta by fluorescence microscopy; assay type: cell-based; details: 100 nM bafilomycin alone, GL-H4 cells
Protocol: FIGS. 1A and 1B are a series of fluorescence micrographs showing that autophagic flow blocked by Bafilomycin A-1 is restored by the peptides according to one embodiment of the present invention, wherein an H4 cell line (GL-H4) stably overexpressing GFP-LC3 protein was treated with various peptides according to one embodiment of the present invention at a concentration of 20 μM in combination with Bafilomycin, whose LC3-GFP spots were photographed after 12 hours. FIGS. 1C and 1D are graphs showing quantification of the fluorescence intensity of LC3-GFP spots 12 hours after the treatment of the GL-H4 cell line with the peptides according to one embodiment of the present invention in combination with bafilomycin at a concentration of 20 μM. […]
To investigate the effect of the peptides comprising the amino acid sequences designated as SEQ ID NOs: 1 to 15 on autophagic flow, the present inventors treated H4 cell lines expressing GFP-tagged LC3 (GL-H4) with MEM and then used the above peptides (20 μM) and the autophagy inhibitor Bafilomycin A-1, Baf A1, 100 nM) to inhibit autophagy. Later, the effect of the peptides according to one embodiment of the present invention was investigated by fluorescence microscopy analysis. […]

[2] = tested on: SOD1 protein aggregates (EGFP-SOD1 G93A); assay: Western blot of SOD1 protein aggregates in transfected HEK293T cells treated with bafilomycin; assay type: cell-based; details: 100 nM bafilomycin alone vs control
Protocol: FIG. 2A is the results of a western blot analysis of SOD1 protein expression levels of protein samples obtained 18 h after treatment of HEK293T cells transfected to express SOD1 with either 100 nM bafilomycin alone or in combination with 30 μM of some peptides according to one embodiment of the present invention, to investigate the degradation of SOD1 protein aggregates by treatment with some peptides (ZC303, ZC304, ZC309, ZC311) according to one embodiment of the present invention. FIG. 2B is a graph showing the results of quantification of the relative expression. In FIG. 2B, * indicates a significant difference from the treatment with bafilomycin alone (* p<0.05).
(§1) The present inventors conducted an Western blot analysis to investigate whether some of the peptides (ZC303, ZC304, ZC309, ZC311) comprising the amino acid sequences designated as SEQ ID NO: 1 to 15 could resolve SOD1 aggregates that formed after transient transfection of SOD1 protein into HEK293T cell lines. Specifically, the present inventors transiently transfected EGFP-SOD1 G93A DNA into the HEK293T cell line using Lipofectamine 2000. […] The obtained cell lysate was subjected to protein quantification using BCA protein assay kit (Pierce Biotechnology, USA). […]

[3] = tested on: mutant tau protein aggregates (EGFP-Tau P301L); assay: Western blot of mutant tau protein aggregates in transfected HEK293T cells treated with bafilomycin; assay type: cell-based; details: 100 nM bafilomycin alone vs controls
[4] = tested on: α-synuclein protein aggregates (EGFP-a-synuclein A53T); assay: Western blot of α-synuclein protein aggregates in transfected HEK293T cells treated with bafilomycin; assay type: cell-based; details: 100 nM bafilomycin alone vs control
Protocol: FIG. 4A is the results of a western blot analysis of a-synuclein expression levels of protein samples obtained 18 h after treatment of HEK293T cells transfected to express a-synuclein protein with either 100 nM bafilomycin alone or in combination with 30 μM of some peptides according to one embodiment of the present invention, to investigate the degradation of a-synuclein protein aggregates by treatment with some peptides (ZC303, ZC304, ZC309, ZC311) according to one embodiment of the present invention.
as §1, with “2000. After transfection, the cell lines were incubated in a cell incubator at 37° C., 5% CO2 for 30 h and the culture medium was replaced with Minimum Essential Medium (MEM, Gibco, USA). After a 30 min pre-treatment with 100 nM bafilomycin, 30 μM of peptide was added and incubated for 18 h of post-treatment.” for “2000.”

[5] = tested on: mutant huntingtin protein aggregates (GFP-mHttQ74); assay: Western blot of mutant huntingtin protein aggregates in transfected HEK293T cells treated with bafilomycin; assay type: cell-based; details: 100 nM bafilomycin alone vs control
Protocol: FIG. 5 is the results of a Western blot analysis of mutant huntingtin protein expression levels of protein samples obtained 18 h after treatment of HEK293T cells transfected to express mutant huntingtin protein with either 100 nM bafilomycin alone or in combination with 30 μM of some peptides according to one embodiment of the present invention, to investigate the degradation of mutant huntingtin protein aggregates by treatment with some peptides (ZC303, ZC304, ZC309, ZC311) according to one embodiment of the present invention.
as §1, with “2000. After transfection, the cell lines were incubated in a cell incubator at 37° C., 5% CO2 for 30 h and the culture medium was replaced with Minimum Essential Medium (MEM, Gibco, USA). After a 30 min pre-treatment with 100 nM bafilomycin, 30 μM of peptide was added and incubated for 18 h of post-treatment.” for “2000.”

β-amyloid aggregates = assay: Thioflavin S and Congo red staining of β-amyloid plaques in brain sections of Alzheimer's model animals; assay type: in vivo; details: 5XFAD mice, cortex and hippocampus, 20 mg/kg IP, 25 weeks, vs model animals given PBS alone
From the text: To determine whether the peptides according to one embodiment of the present invention could inhibit the accumulation of β-amyloid aggregates in the brain as a pathologic phenomenon of Alzheimer's disease, even under realistic in vivo conditions as shown by the results of Experiments 4 and 5 above, brain tissue sections obtained from experimental animals sacrificed after the peptide administration for 25 weeks were stained with thioflavin S and Congo red that have selective affinity for β-amyloid plaques.
Specifically, for thioflavin S staining, the brain of a dementia model mouse was harvested and freeze-dried in O.C.T compound (Sakura finetec, USA), and brain sections were obtained by coronal sectioning and mounted on glass slides coated with 0.1% poly-L-lysine. The obtained brain sections were washed in 70% ethanol for 1 min, then in 80% ethanol for 1 min again, and stained in 1% thiflavin S solution (MilliporeSigma, USA) for 15 min. […] Finally, the β-amyloid senile spots were observed through fluorescence microscopy.
Congo red staining to identify amyloid was performed as follows. […] The amyloid senile spots were observed under a fluorescence microscope, and the number of stained senile spots and amyloid per brain section was counted and quantified with a statistical program (Graph prism).

[6] = tested on: P-Tau S214, P-Tau T205, unphosphorylated tau, p62, LC3, β-amyloid (APP); assay: Western blot of aggregate-forming proteins in cerebral cortex and hippocampus of Alzheimer's model animals; assay type: in vivo; details: 5XFAD mice, 20 mg/kg IP, 25 weeks
From the text: Based on the results of Experimental example 7-2 above, the present inventors investigated the expression of pathogenic aggregate-forming proteins such as tau protein, p62, and LC3 in brain tissue other than β-amyloid by Western blot analysis.
Specifically, cortical and hippocampal tissues were obtained from experimental animals sacrificed after experiments, and the tissues were lysed and subjected to Western blot analysis in the same manner as Experimental example 3, using antibodies that specifically bind to phosphorylated tau S214 (P-Tau S214), phosphorylated tau T205 (P-Tau T205), unphosphorylated tau, p62, LC3, and β-amyloid (APP), respectively.

[7] = tested on: amyotrophic lateral sclerosis model animal (G93A-SOD1); assay: Rotarod test in ALS model animals; assay type: in vivo; details: G93A-SOD1 mice, 40 mg/kg SC five days per week from age 112 to 200 days, 15 rpm, 300 seconds
Protocol: (§2) To determine whether the peptide according to one embodiment of the present invention has therapeutic effects on amyotrophic lateral sclerosis (ALS) in vivo, the present inventors administered the peptide according to one embodiment of the present invention (ZC311) to an amyotrophic lateral sclerosis model animal (G93A-SOD1) at 40 mg/kg by subcutaneous (SC) injection repeatedly five days per week (Monday through Friday) from the age of 112 days to 200 days.
The animals were then subjected to a rotarod test twice a week at intervals of up to 3-4 days to evaluate their motor function. The rotarod test was performed using a rotarod treadmill (Cat. No. DJ-345, Dae Jong, Seoul, Korea) to evaluate impaired coordination, the main symptom of basal ganglia lesion disease, by measuring the time for the subject animals (n=11, 8, and 10) to fall off the rod during three repetitions of 300 seconds at a constant speed of 15 rpm. 300 seconds was set to be a perfect score, and the highest score was used.

[8] = Body weight change in ALS model animals; assay type: in vivo; details: G93A-SOD1 mice, 40 mg/kg SC five days per week from age 112 to 200 days
Protocol: as §2
The present inventors measured changes in body weight over time during the behavioral analysis of Experimental example 8-1 above.

[9] = tested on: amyotrophic lateral sclerosis model animal (G93A-SOD1); assay: Survival rate of ALS model animals; assay type: in vivo; details: G93A-SOD1 mice, 40 mg/kg SC five days per week from age 112 days; untreated model 162 days
Protocol: as §2
In contrast, ALS model mice treated with the peptide according to one embodiment of the present invention began to die at a similar time to the control group, but the time to death was delayed (50% survival 183 days).

Row | Compound | number and size of LC3 spots [1] | SOD1 protein aggregates [2] | mutant tau protein aggregates [3] | α-synuclein protein aggregates [4] | mutant huntingtin protein aggregates [5] | accumulation of β-amyloid aggregates (plaques, thioflavin S and Congo red) (β-amyloid aggregates) | expression of aggregate-forming proteins in the cerebral cortex [6] | expression of aggregate-forming proteins in the hippocampus [6] | development of ataxia (rotarod) [7] | progressive body weight loss over time [8] | 50% survival [9] [days]
1 | CO/C1=C\C(C)=C\[C@@H](C)[C@@H](O)[C@@H](C)C/C(C)=C/C=C/[C@H](OC)[C@@H]([C@@H](C)[C@@H](O)[C@H](C)[C@@]2(O)C[C@@H](O)[C@H](C)[C@@H](C(C)C)O2)OC1=O [bafilomycin, Bafilomycin A-1] | significantly increased | increased | increased | increased | increased | – | – | – | – | – | –
2 | ZC311 ([dH]G[dV][dS]GHGQ[dH]G[dV][dH]G; not fully specified (residues 6, 8)) | – | – | – | – | – | significantly inhibited | significantly lower | significantly lower | delayed | not altered | 183
